Results published in article PMC9823097, “Dysregulation of PRMT5 in chronic lymphocytic leukemia promotes progression with high risk of Richter’s transformation” (Nature Communications, 2023).

Assays:
[1] = target: T1, recombinant human PRMT5/MEP50 (Homo sapiens, UniProt O14744); assay: Filtration binding assay with recombinant human PRMT5/MEP50 (biochemical potency)
Procedure: For biochemical potency and selectivity, PRT382 was solubilized in 100% DMSO and diluted serially threefold. […] Standard reactions were performed in a total volume of 30 μl in assay buffer, with 300 nM histone H4-based AcH4-23 (Anaspec: AS-65002) as substrate. To this was added the PRMT5/MEP50 complex diluted to provide a final assay concentration of 2.5 nM, and the compounds were allowed to preincubate for 20 min at 37 °C. The reaction was initiated by adding S-[3 H-methyl]-adenosyl-L-methionine (PerkinElmer: NET155001MC) to a final concentration of 1 μM. Following a 30 min of incubation at 37 °C, the reaction was stopped by adding 25 μL of 8 M Guanidine HCl. To each reaction, 150 µL of SPA beads suspension (Perkinelmer: RPNQ0012) was added and incubated while shaking at room temperature for 30 min. The plate was centrifuged at 100 xg for 30 s before reading in a scintillation counter. IC50 values were determined by fitting the data to with Hill Slope using GraphPad Prism software (v9.2.0).

JVM-2 = assay: Anti-proliferative activity, MTS assay, JVM-2; format: cell-based; details: Homo sapiens, DLBCL, read-out: PRT382 IC50 (anti-proliferative)
Procedure: (§1) Cell proliferation was assessed via MTS (3-[4,5-dimethylthiazol-2-yl]-5-[3-carboxymethoxyphenyl]-2-[4-sulfophenyl]-2H-tetrazolium) assay (Sigma), using the tetrazolium dye […]. Cell apoptosis was evaluated by Annexin V-FITC or PE and propidium iodide (PI) staining using FC500 cytometer (Beckman-Coulter, Indianapolis, IN) following the manufacturer’s procedure (BD Pharmingen, Billerica, MA)[55]. For cell cycle analysis, cells were fixed with cold ethanol overnight and then stained before analysis with 30 μg/mL propidium iodide (Invitrogen) and 200 μg/mL RNase (Sigma-Aldrich) in 0.1 % v/v Triton X-100 (Sigma-Aldrich). Cell cycle data analysis was performed using ModFit LT software (Verity Software House, Topsham, ME).

RL = assay: Anti-proliferative activity, MTS assay, RL; format: cell-based; details: Homo sapiens, DLBCL, read-out: PRT382 IC50 (anti-proliferative)
Procedure: as §1

[2] = Pharmacokinetics in mice (clearance, oral bioavailability, AUC); format: in vivo
[3] = Pharmacokinetics in rats (clearance, oral bioavailability); format: in vivo
[4] = Pharmacokinetics in dogs (clearance, oral bioavailability); format: in vivo
HG3 cells = assay: Cell growth curves over 12 days, HG3; format: cell-based
Procedure: Live cells/mL were counted on days 3, 6, 10, and 12. […] The split factor was calculated at indicated time points by dividing the counted cells/mL by 3E5. Cell growth was extrapolated over time by multiplying the subsequent cell count by the previous split factor. Cell growth is plotted as fold change relative to DMSO-treated cells.

[5] = target: T1, recombinant human PRMT5/MEP50; assay: Filtration binding assay with recombinant human PRMT5/MEP50 (biochemical potency); details: histone H2A as the protein substrate
[6] = HG3, continuous exposure over 12 days

T1 sequence (O14744 whole entry): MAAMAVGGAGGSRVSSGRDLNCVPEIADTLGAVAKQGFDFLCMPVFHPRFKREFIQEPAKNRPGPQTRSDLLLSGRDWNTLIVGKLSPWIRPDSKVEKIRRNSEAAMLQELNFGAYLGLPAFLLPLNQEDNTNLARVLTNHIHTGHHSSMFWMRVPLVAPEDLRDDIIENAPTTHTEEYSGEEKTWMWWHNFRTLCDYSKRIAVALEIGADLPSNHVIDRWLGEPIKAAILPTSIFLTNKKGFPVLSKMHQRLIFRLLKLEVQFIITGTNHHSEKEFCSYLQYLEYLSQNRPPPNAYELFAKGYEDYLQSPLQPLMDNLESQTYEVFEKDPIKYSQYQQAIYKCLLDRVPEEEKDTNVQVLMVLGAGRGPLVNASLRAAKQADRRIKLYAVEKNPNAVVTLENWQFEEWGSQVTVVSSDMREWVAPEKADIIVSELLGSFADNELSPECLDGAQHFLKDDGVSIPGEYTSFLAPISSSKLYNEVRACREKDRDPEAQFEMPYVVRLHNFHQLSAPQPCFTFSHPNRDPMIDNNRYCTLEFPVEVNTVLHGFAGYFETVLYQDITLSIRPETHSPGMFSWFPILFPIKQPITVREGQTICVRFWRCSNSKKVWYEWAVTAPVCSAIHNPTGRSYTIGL
T1 sequence (Q9BQA1 whole entry partner): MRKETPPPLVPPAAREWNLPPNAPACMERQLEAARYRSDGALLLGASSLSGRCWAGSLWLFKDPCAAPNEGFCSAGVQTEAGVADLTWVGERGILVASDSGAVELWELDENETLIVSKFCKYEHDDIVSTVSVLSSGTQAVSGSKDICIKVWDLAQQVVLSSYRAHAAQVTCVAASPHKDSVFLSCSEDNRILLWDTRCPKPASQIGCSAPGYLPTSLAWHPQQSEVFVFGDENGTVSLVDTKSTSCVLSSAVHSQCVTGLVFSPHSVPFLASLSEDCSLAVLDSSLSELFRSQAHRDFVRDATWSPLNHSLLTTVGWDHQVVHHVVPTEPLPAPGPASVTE

For `CON=c1nc[nH]c2c1ccn2[C@@H]1O[C@H]([C@H](O)c2ccc(Cl)c(Cl)c2)[C@@H](O)[C@H]1O.Cl` [PRT382, (2 R,3 S,4 R,5 R)-2-[(R)-(3,4-dichlorophenyl)-hydroxy-methyl]-5-[(4Z)-4-methoxyimino-1H-pyrrolo[2,3-d]pyrimidin-7-yl]tetrahydrofuran-3,4-diol hydrochloride], the “PRT382 dose-response signal (Figure 6C; DMSO = 100.515)” value (from here on “PRT382 dose-response signal”) ([1]; 508.1 pM) was 76.3419, the “PRT382 dose-response signal” value ([1]; 1.52416e-9 M) was 63.1814 and the “PRT382 dose-response signal” value ([1]; 4.57247e-9 M) was 38.5693. The “PRT382 dose-response signal” value ([1]; 1.37174e-8 M) was 22.7886, the “PRT382 dose-response signal” value ([1]; 4.11523e-8 M) was 12.7118 and the “PRT382 dose-response signal” value ([1]; 1.23457e-7 M) was 6.679. The “PRT382 dose-response signal” value ([1]; 3.7037e-7 M) was 2.863, the “PRT382 dose-response signal” value ([1]; 1.11111e-6 M) was 1.261 and the “PRT382 dose-response signal” value ([1]; 3.33333e-6 M) was 0.4291. For the same molecule, the “PRT382 dose-response signal” value ([1]; 1e-5 M) was 0.1164, the IC50 (JVM-2) was 10 nM and the IC50 (RL) was 16 nM. The clearance [2] was “low”, the bioavailability ([2]; mouse, in vivo, po, read-out: oral bioavailability (F%)) was 70 to 80% and the clearance [3] was “low”. The bioavailability ([3]; rat, in vivo, po, read-out: oral bioavailability (F%)) was 70 to 80%, the clearance [4] was “low” and the bioavailability ([4]; dog, in vivo, po, read-out: oral bioavailability (F%)) was 70 to 80%. The “anti-proliferative potency compared to JNJ-64619178, LLY-283, and PF-06855800” value (HG3 cells; HG3) was “similar-to-reduced”, the “Rep 1 Live Cells [Fold Change]” value (HG3 cells; HG3, 1 nM, day 0) was 1 Fold Change and the “Rep 2 Live Cells [Fold Change]” value (HG3 cells; HG3, 1 nM, day 0) was 1 Fold Change. For the same molecule, the “Rep 3 Live Cells [Fold Change]” value (HG3 cells; HG3, 1 nM, day 0) was 1 Fold Change, the “Rep 1 Live Cells [Fold Change]” value (HG3 cells; HG3, 1 nM, day 3) was 5.95 Fold Change and the “Rep 2 Live Cells [Fold Change]” value (HG3 cells; HG3, 1 nM, day 3) was 7.45 Fold Change. The “Rep 3 Live Cells [Fold Change]” value (HG3 cells; HG3, 1 nM, day 3) was 5.95 Fold Change, the “Rep 1 Live Cells [Fold Change]” value (HG3 cells; HG3, 1 nM, day 6) was 46.5092 Fold Change and the “Rep 2 Live Cells [Fold Change]” value (HG3 cells; HG3, 1 nM, day 6) was 44.5758 Fold Change. For the same molecule, the “Rep 3 Live Cells [Fold Change]” value (HG3 cells; HG3, 1 nM, day 6) was 27.1717 Fold Change, the “Rep 1 Live Cells [Fold Change]” value (HG3 cells; HG3, 1 nM, day 10) was 425.559 Fold Change and the “Rep 2 Live Cells [Fold Change]” value (HG3 cells; HG3, 1 nM, day 10) was 463.589 Fold Change. The “Rep 3 Live Cells [Fold Change]” value (HG3 cells; HG3, 1 nM, day 10) was 237.752 Fold Change, the “Rep 1 Live Cells [Fold Change]” value (HG3 cells; HG3, 1 nM, day 12) was 1418.53 Fold Change and the “Rep 2 Live Cells [Fold Change]” value (HG3 cells; HG3, 1 nM, day 12) was 1486.57 Fold Change. For the same molecule, the “Rep 3 Live Cells [Fold Change]” value (HG3 cells; HG3, 1 nM, day 12) was 1077.81 Fold Change, the “Rep 1 Live Cells [Fold Change]” value (HG3 cells; HG3, 10 nM, day 0) was 1 Fold Change and the “Rep 2 Live Cells [Fold Change]” value (HG3 cells; HG3, 10 nM, day 0) was 1 Fold Change. For the same molecule, the “Rep 3 Live Cells [Fold Change]” value (HG3 cells; HG3, 10 nM, day 0) was 1 Fold Change, the “Rep 1 Live Cells [Fold Change]” value (HG3 cells; HG3, 10 nM, day 3) was 6.983 Fold Change and the “Rep 2 Live Cells [Fold Change]” value (HG3 cells; HG3, 10 nM, day 3) was 6.833 Fold Change. The “Rep 3 Live Cells [Fold Change]” value (HG3 cells; HG3, 10 nM, day 3) was 6.567 Fold Change, the “Rep 1 Live Cells [Fold Change]” value (HG3 cells; HG3, 10 nM, day 6) was 48.6506 Fold Change and the “Rep 2 Live Cells [Fold Change]” value (HG3 cells; HG3, 10 nM, day 6) was 58.5389 Fold Change. The “Rep 3 Live Cells [Fold Change]” value (HG3 cells; HG3, 10 nM, day 6) was 42.7928 Fold Change, the “Rep 1 Live Cells [Fold Change]” value (HG3 cells; HG3, 10 nM, day 10) was 471.91 Fold Change and the “Rep 2 Live Cells [Fold Change]” value (HG3 cells; HG3, 10 nM, day 10) was 680.515 Fold Change. For the same molecule, the “Rep 3 Live Cells [Fold Change]” value (HG3 cells; HG3, 10 nM, day 10) was 419.369 Fold Change, the “Rep 1 Live Cells [Fold Change]” value (HG3 cells; HG3, 10 nM, day 12) was 1691.01 Fold Change and the “Rep 2 Live Cells [Fold Change]” value (HG3 cells; HG3, 10 nM, day 12) was 2381.8 Fold Change. For the same molecule, the “Rep 3 Live Cells [Fold Change]” value (HG3 cells; HG3, 10 nM, day 12) was 2411.37 Fold Change, the “Rep 1 Live Cells [Fold Change]” value (HG3 cells; HG3, 100 nM, day 0) was 1 Fold Change and the “Rep 2 Live Cells [Fold Change]” value (HG3 cells; HG3, 100 nM, day 0) was 1 Fold Change. For the same molecule, the “Rep 3 Live Cells [Fold Change]” value (HG3 cells; HG3, 100 nM, day 0) was 1 Fold Change, the “Rep 1 Live Cells [Fold Change]” value (HG3 cells; HG3, 100 nM, day 3) was 3.433 Fold Change and the “Rep 2 Live Cells [Fold Change]” value (HG3 cells; HG3, 100 nM, day 3) was 6.117 Fold Change. For the same molecule, the “Rep 3 Live Cells [Fold Change]” value (HG3 cells; HG3, 100 nM, day 3) was 4.417 Fold Change, the “Rep 1 Live Cells [Fold Change]” value (HG3 cells; HG3, 100 nM, day 6) was 12.7033 Fold Change and the “Rep 2 Live Cells [Fold Change]” value (HG3 cells; HG3, 100 nM, day 6) was 20.7661 Fold Change. The “Rep 3 Live Cells [Fold Change]” value (HG3 cells; HG3, 100 nM, day 6) was 13.7726 Fold Change, the “Rep 1 Live Cells [Fold Change]” value (HG3 cells; HG3, 100 nM, day 10) was 31.282 Fold Change and the “Rep 2 Live Cells [Fold Change]” value (HG3 cells; HG3, 100 nM, day 10) was 112.137 Fold Change. For the same molecule, the “Rep 3 Live Cells [Fold Change]” value (HG3 cells; HG3, 100 nM, day 10) was 30.472 Fold Change, the “Rep 1 Live Cells [Fold Change]” value (HG3 cells; HG3, 100 nM, day 12) was 66.0571 Fold Change and the “Rep 2 Live Cells [Fold Change]” value (HG3 cells; HG3, 100 nM, day 12) was 233.431 Fold Change. For the same molecule, the “Rep 3 Live Cells [Fold Change]” value (HG3 cells; HG3, 100 nM, day 12) was 63.4325 Fold Change, the “Rep 1 Live Cells [Fold Change]” value (HG3 cells; HG3, 1 µM, day 0) was 1 Fold Change and the “Rep 2 Live Cells [Fold Change]” value (HG3 cells; HG3, 1 µM, day 0) was 1 Fold Change. The “Rep 3 Live Cells [Fold Change]” value (HG3 cells; HG3, 1 µM, day 0) was 1 Fold Change, the “Rep 1 Live Cells [Fold Change]” value (HG3 cells; HG3, 1 µM, day 3) was 3.05 Fold Change and the “Rep 2 Live Cells [Fold Change]” value (HG3 cells; HG3, 1 µM, day 3) was 6.15 Fold Change. The “Rep 3 Live Cells [Fold Change]” value (HG3 cells; HG3, 1 µM, day 3) was 3.933 Fold Change, the “Rep 1 Live Cells [Fold Change]” value (HG3 cells; HG3, 1 µM, day 6) was 3.162 Fold Change and the “Rep 2 Live Cells [Fold Change]” value (HG3 cells; HG3, 1 µM, day 6) was 4.9815 Fold Change. The “Rep 3 Live Cells [Fold Change]” value (HG3 cells; HG3, 1 µM, day 6) was 4.615 Fold Change, the “Rep 1 Live Cells [Fold Change]” value (HG3 cells; HG3, 1 µM, day 10) was 2.64 Fold Change and the “Rep 2 Live Cells [Fold Change]” value (HG3 cells; HG3, 1 µM, day 10) was 3.873 Fold Change. For the same molecule, the “Rep 3 Live Cells [Fold Change]” value (HG3 cells; HG3, 1 µM, day 10) was 1.218 Fold Change, the “Rep 1 Live Cells [Fold Change]” value (HG3 cells; HG3, 1 µM, day 12) was 1.11 Fold Change and the “Rep 2 Live Cells [Fold Change]” value (HG3 cells; HG3, 1 µM, day 12) was 5.3136 Fold Change. The “Rep 3 Live Cells [Fold Change]” value (HG3 cells; HG3, 1 µM, day 12) was 0.1619 Fold Change, the “dose at which growth inhibition begins” value (HG3 cells; [6]) was 100 nM and the “effect on growth potential (cell growth)” value (HG3 cells; [6]) was “time and dose-dependent growth inhibition”. The IC50 [5] was 2.8 nM.
